Laboratory results from patent publication US20250339542A1, “CONVERSION OF A BIOLOGICALLY SILENT MIRNA BINDING SMALL MOLECULE TO AN MIRNA DEGRADER” (University of Florida Research Foundation, Incorporated, priority 2020, published 2025).
“And” between values parts separate entries of the source, which are not always exact repeats. Equal entries are not always repeated. “Also recorded” adds a separate entry of the source.

Legend:
miR-155 [1] = experiment: RT-qPCR of mature miR-155 levels in MDA-MB-231 cells; type: cell-based, human; settings: 48 h
Procedure: (§1) Tissue Culture. MDA-MB-231 cells were obtained from ATCC (HTB-26) and cultured in RPMI medium with […] & 25 mM HEPES (Corning) supplemented with 10% FBS (sigma). MCF-10a cells were obtained from ATCC(CRL-10317) and cultured in DMEM/F12 50/50 with glutamine and 15 mM HEPES(Corning) containing 20% FBS(Sigma), 1×Antibiotic-Antimycotic(Corning), 20 ng/mL of human epidermal growth factor(Pepro Tech Inc.), 100 μg/mL of insulin and […] of hydrocortisone (Pfizer &Bauer). HUVECs were cultured in EGM (Lonza) made using the EGM-2 bullet kit (Lonza) per the manufacturers protocol.
(§2) RT-qPCR analysis for Mature, Primary and Precursor miRNAs and mRNA levels. After compound treatment for the indicated time (MDA-MB-231 48 h and HUVECs 24 h), total RNA was extracted using the Zymo Quick-RNA mini prep kit according to the manufacturers protocol. Reverse Transcription (RT) for microRNAs and pri- and pre-miR-155 were done on 200 ng of RNA using the miScript II RT kit (Qiagen) according to the manufacturer's protocol. The mRNAs were done using QScript (Quanta Bio) on 200 ng of total RNA according to the manufacturer's protocol. RT-qPCR was done as mentioned above. The obtained data was analyzed by using the ΔΔCt method as described previously. For the washout experiment, MDA-MB-231 cells were treated with 3 for 48 h. Then the media was changed with fresh growth medium without compound and the cells incubated for 12, 24 and 36 h with RNA harvested and pre-miR-155 levels analyzed as described above.
(§3) RT-qPCR analysis for Mature, Primary and Precursor miRNAs and mRNA levels part. Relative RNA expression was determined by using ΔΔCt method with 18S rRNA as an internal control. Normalized fold change was calculated with the equation as below: […]

RNase L / pre-miR-155 = target: T1, RNase L / pre-miR-155 (Homo sapiens, UniProt Q05823); experiment: Immunoprecipitation of RNase L from MDA-MB-231 cells, RT-qPCR of pre-miR-155; type: cell-based; settings: 100 nM, 48 h, relative to untreated
T1 construct: RNase L was immunoprecipitated from MDA-MB-231 cells; endogenous in cells; host or cells: MDA-MB-231
T1 sequence (Q05823 1-741): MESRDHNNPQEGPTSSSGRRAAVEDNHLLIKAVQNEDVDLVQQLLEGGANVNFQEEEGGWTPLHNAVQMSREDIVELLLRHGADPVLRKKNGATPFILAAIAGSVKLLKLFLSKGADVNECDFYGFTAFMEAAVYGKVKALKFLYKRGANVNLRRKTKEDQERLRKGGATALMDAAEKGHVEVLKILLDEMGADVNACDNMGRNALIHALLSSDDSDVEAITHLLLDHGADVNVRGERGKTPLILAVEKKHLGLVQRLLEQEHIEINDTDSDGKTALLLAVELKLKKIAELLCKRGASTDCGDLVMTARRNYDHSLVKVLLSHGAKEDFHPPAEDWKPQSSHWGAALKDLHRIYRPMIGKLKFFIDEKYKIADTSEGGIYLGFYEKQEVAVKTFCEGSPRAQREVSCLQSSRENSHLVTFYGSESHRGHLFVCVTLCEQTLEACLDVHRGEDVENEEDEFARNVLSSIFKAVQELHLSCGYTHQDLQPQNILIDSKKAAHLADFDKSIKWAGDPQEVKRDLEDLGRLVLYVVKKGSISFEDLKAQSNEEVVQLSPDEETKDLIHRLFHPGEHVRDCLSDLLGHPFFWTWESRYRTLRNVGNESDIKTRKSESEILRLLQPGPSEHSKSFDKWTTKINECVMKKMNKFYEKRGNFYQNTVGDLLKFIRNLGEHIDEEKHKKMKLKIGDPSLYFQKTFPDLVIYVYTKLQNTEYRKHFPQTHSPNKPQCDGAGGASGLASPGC
Procedure: Immunoprecipitation of RNase L. RNase L immunoprecipitation is performed according to published procedures.^16 Briefly, at […], MDA-MB-231 cells were treated with vehicle, 100 nM of 3 or 5 for 48 h. Cells were then washed with DPBS, and detached by scraper. The collected cells were lysed in 100 L of M-PER buffer(78503, Thermo Fisher) containing 1× Protease Inhibitor Cocktail III for Mammalian Cells (Research Products International Corp.) and 80 U of RNaseOUT Recombinant Ribonuclease Inhibitor (Invitrogen) per the manufacture's protocol. The samples were centrifuged at 13,000×g at 4° C. Protein concentration was determined by using a Pierce Mico BCA Protein Assay kit (Fisher Scientific). Approximately 200 g of the total protein per sample was incubated at 4° C. overnight with Dynabeads Protein A (Life Technologies) bound to either RNase L mouse primary antibody (Santa Cruz Biotechnology: sc-74405) or j-actin mouse primary antibody (Cell signaling: 8H10D10). Beads were then washed with 1× DPBST (1× DPBS supplemented with 0.02% Tween-20) for 3 times, after which RNA was extracted by using a miRNeasy Mini Kit (Qiagen) per the manufacturer's instructions. RT-qPCR was performed the same as mentioned above.

miR-155 [2] = experiment: RT-qPCR of miR-155 levels in HUVECs; type: cell-based, human
Procedure: as §1, §2

pre-miR-155 [3] = experiment: RT-qPCR of pre-miR-155 levels in HUVECs; type: cell-based, human
Procedure: as §1, §2

pri-miR-155 = experiment: RT-qPCR of pri-miR-155 levels in MDA-MB-231 cells; type: cell-based, human
Procedure: as §1
RT-qPCR analysis for Mature, Primary and Precursor miRNAs and mRNA levels. After compound treatment for the indicated time (MDA-MB-231 48 h and HUVECs 24 h), total RNA was extracted using the Zymo Quick-RNA mini prep kit according to the manufacturers protocol. […] The obtained data was analyzed by using the ΔΔCt method as described previously. […] Then the media was changed with fresh growth medium without compound and the cells incubated for 12, 24 and 36 h with RNA harvested and pre-miR-155 levels analyzed as described above.
as §3

MDA-MB-231 cells = experiment: Migration assay of MDA-MB-231 cells; type: cell-based; settings: Homo sapiens, compound 3 at 1×10^−7 M, read-out: inhibition of cellular migration
Procedure: (§4) Migration Assay: The Migration assay was performed the same as previous publication^15. Briefly, MDA-MB-231 cells were serum starved for 12 h in RPMI medium without FBS. Then, samples of 50,000 cells treated with vehicle or 155-Ribotac in serum starved medium were seeded into Hanging cell culture Inserts with 8.0 µm pores for 24 well plate with complete growth medium in the bottom well. After 20 h, the medium was aspirated and the inserts and the bottom wells were washed with DPBS twice. Then to the bottom well were added 400 µL of 4% paraformaldehyde. After fixing for 20 min. The inserts and wells were washed with DPBS twice and then treated with 400 µL of 0.1% crystal violet solution. After 20 min, the wells and inserts were washed with water twice and PBS once. Cotton swabs were used to remove the cells inside the inserts. Migration inserts were completely air-dried and imaged by using a Leica DMI3000 B upright fluorescent microscope.

pre-miR-155 [4] = experiment: RT-qPCR of pre-miR-155 levels in MDA-MB-231 cells; type: cell-based, human
Procedure: as §1, §2, §3

SOCS1 = experiment: Western blot of SOCS1 in MDA-MB-231 cells; type: cell-based, human
Procedure: Western-Blotting. MDA-MB-231 cells were plated in 6 well plates at 150,000 cells/well. And at 50% confluency, cells were treated with Vehicle or 155-ribotac for 48 h. Then the medium was removed and washed with 1× DPBS. The cells were trypsinized and pelleted. The pellets were washed twice with 1× DPBS and then lysed in 50 L of M-PER (Thermo Fisher) buffer with 1× protease inhibitor cocktail (Roche) on ice for 20 min. The lysate was centrifuged at 4° C. for 15 min and the supernatants were collected. Protein concentration were determined using a Pierce Mico BCA Protein Assay kit (Fisher Scientific) according to the manufacturer's protocol. Approximately 20 g of total protein for each sample was resolved on a 10% SDS-polyacrylamide gel and the protein were then transferred to a PVDF membrane. […] After washing with 1× TBST for 15 min for 3 times, SOCS1 protein expression was detected by using SuperSignal West Pico Chemiluminescent Substrate (Pierce Biotechnology).
The membrane was then stripped by Stripping Buffer (200 mM glycine with 0.1% SDS, pH 2.2) for 90 min at RT and then the membrane was washed with 1× TBST for 10 min for 3 times. […] The membrane was then washed with 1× TBST for 10 min for 3 times and j-actin expression level was detected. ImageJ software was used to quantify the protein bands.

Von-Hippel Lindau (VHL) = experiment: Western blot of VHL in HUVECs; type: cell-based, human
[5] = tested on: RNA isoforms of miR-155 that contain the 5′GAU/3′C_A binding site; experiment: RT-qPCR of RNA isoforms of miR-155 (same binding site) in MDA-MB-231 cells; type: cell-based, human; settings: 48 h
Procedure: Next, the selectivity of 3 to inhibit miR-155 out of 373 expressed miRNAs in MDA-MB-231 cell was assessed. […] A comparison of their structures to the aforementioned list of miRNAs with potential RIBOTAC sites identified that all except pre-miR-101-1 and pre-let-7g have a RIBOTAC targetable motif.
as §2

MCF-10a cells = experiment: Migration assay of transfected MCF-10a cells; type: cell-based; settings: mock transfected MCF-10a cells
Procedure: Lastly, the dependence of migration on miR-155 and the activity of 3 on the presence of the 5′GAU/3′C_A bulge was assessed. MCF-10a cells, a model of healthy breast epithelium, were transfected with wild type pre-miR-155 and mutant pre-miR-155, where the 5′GAU/3′C_A bulge is mutated to an AU base pair. […] Treatment with 3 reduced migration of MCF-10a cells transfected with WT pre-miR-155 by 60%, in contrast to mutant miR-155 expressing cells in which the compound's binding site has been ablated, the migration of which was unaffected by 3 treatment.
as §4, with “Migration inserts were completely air-dried and imaged by using a Leica DMI3000 B upright fluorescent microscope.” left out

HUVECs = experiment: Angiogenesis: tubule network formation of HUVECs on Matrigel; type: cell-based, human
Procedure: Lastly, compound 3's (Formula I) effect on VHL protein and angiogenesis in HUVECs was studied. […] Since upregulation of VHL should attenuate the angiogenic capacity of HUVECs, their ability to differentiate into tubule networks on Matrigel as previously described was measured.^24 Treatment with compound 3, caused a decrease of 29% (100 vs. 140 branch points) in tubule branching for differentiated HUVECs. Although small, this decrease does correspond with suppression of miR-155 and de-repression of VHL, which is in line with the initial study by Kong et al. who observed a 42% reduction in branching points (FIG. 21I).^38 Taken together compound 3 degrades miR-155 in HUVECs with low nanomolar activity and is able to attenuate their angiogenic capacity.

| enrichment of pre-miR-155 in RNase L pulldown fractions (RNase L / pre-miR-155) | Compound | effect on miR-155 levels / miR-155 biogenesis (miR-155 [1]) | effect on miR-155 levels (miR-155 [2]) | effect on pre-miR-155 levels (pre-miR-155 [3]) | degradation of the primary transcript (pri-miR-155) (pri-miR-155) [%] | inhibition at 0.1 µM (MDA-MB-231 cells) [%] | lowest concentration showing reduction of miR-155 levels (miR-155 [2]) [nM] | inhibition at 0.001 µM (miR-155 [2]; Homo sapiens, HUVEC, 1×10^−9 M) [%] | degradation of pre-miR-155 (pre-miR-155 [4]; MDA-MB-231 cells, 1×10^−7 M, 48 h) [%] | degradation of pre-miR-155 (pre-miR-155 [4]; MDA-MD-231 and/or HUVEC cells, 0.1 micromolar, summary) [%] | lowest concentration showing cleavage of pre-miR-155 (pre-miR-155 [3]) [nM] | inhibition at 0.001 µM (pre-miR-155 [3]; Homo sapiens, HUVEC, 1×10^−9 M) [%] | de-repression of SOCS1 (SOCS1) [%] | upregulation of SOCS1 (SOCS1) [fold] | de-repression of VHL (Von-Hippel Lindau (VHL); 10 nM) [%] | de-repression of VHL (Von-Hippel Lindau (VHL); 1×10^−7 M) [fold] | effect on RNA isoforms of miR-155 [5] | effect on migration (MCF-10a cells) | inhibition of angiogenic capacity / decrease in tubule branching (HUVECs; differentiated HUVECs on Matrigel) | branch points (HUVECs; differentiated HUVECs, treated (vs. 140 untreated)) |
| --- | --- | --- | --- | --- | --- | --- | --- | --- | --- | --- | --- | --- | --- | --- | --- | --- | --- | --- | --- | --- |
| no enrichment | CCOC(=O)C1=C(Nc2ccccc2)S/C(=C\c2ccc(O)c(OCCOCCOCCOCCNC(=O)CCc3c(C)n(-c4c(C(C)C)cccc4C(C)C)c[n+]3-c3c(C(C)C)cccc3C(C)C)c2)C1=O [Compound 5] | no effect; also recorded: does not inhibit | no effect | no effect | – | – | – | – | – | – | – | – | – | – | – | – | – | – | – | – |
| – | CCOC(=O)C1=C(Nc2ccccc2)S/C(=C\c2ccc(OCCOCCOCCOCCNC(=O)CCc3c(C)n(-c4c(C(C)C)cccc4C(C)C)c[n+]3-c3c(C(C)C)cccc3C(C)C)c(O)c2)C1=O [Compound 3] | – | – | – | 43 | 50 | ≤ 1 | 50 | 60 | ≥ 60 | ≤ 1 | 50 | 50 | 1.6 | 50 | 1.5 | no effect | inactive | 20% and 29% | 100 |
